Results from US8673904B2, “Epoxide inhibitors of cysteine proteases” (The Board of Trustees of the Leland Stanford Junior …, priority 2006, dated 2014).

Tested on: cathepsin targets
Assay: Cathepsin targets of the compounds (Table 4)
Type: biochemical, rat
Conditions: cathepsin target(s) inhibited; General = all cathepsins
Protocol: Also included in the table for comparison are known compounds JPMOEt and JPMOH (also known as JPM-565). See Meara and Rich, J. Med. Chem. 39:3357-3366, 1996; Bogyo et al, Chem. Biol. 7:27-38, 2000; and Joyce et al., Cancer Cell 5:443-453, 2004. The table also lists cathepsin targets and measured IC50 values for specific compounds. To determine these values, 1 mg/ml of rat liver lysate was incubated with a series of concentrations of the inhibitor for 20 minutes. Then, 1 ul of a radiolabled general cathepsin probe, DCG-04, was added to the solutions and incubated for 1 hour. After fixing and drying the gel, the residual enzyme activity was measured using ImageJ software. The measurements were then transferred to GraphPad Prism 4 to calculate the IC50 values.

Compound | Target
CC(=O)NCCNC(=O)[C@H]1O[C@@H]1C(=O)N[C@@H](Cc1ccc(C)cc1)C(=O)N[C@@H](Cc1ccc(O)cc1)C(N)=O [Compound 1] | Cat B
Cc1ccc(C[C@H](NC(=O)C2OC2C(=O)NCc2ccccc2)C(=O)N[C@@H](Cc2ccc(O)cc2)C(N)=O)cc1 (stereo partly drawn) [Compound 2] | Cat B
Cc1ccc(C[C@H](NC(=O)[C@H]2O[C@@H]2C(=O)NCCc2ccccn2)C(=O)N[C@@H](Cc2ccc(O)cc2)C(N)=O)cc1 [Compound 3] | Cat B
Cc1ccc(C[C@H](NC(=O)C2OC2C(=O)NCCN2CCOCC2)C(=O)N[C@@H](Cc2ccc(O)cc2)C(N)=O)cc1 (stereo partly drawn) [Compound 4] | Cat B
Cc1ccc(C[C@H](NC(=O)C2OC2C(=O)NCCc2ccc(-c3ccccc3)cc2)C(=O)N[C@@H](Cc2ccc(O)cc2)C(N)=O)cc1 (stereo partly drawn) [Compound 5] | Cat B
Cc1ccc(C[C@H](NC(=O)[C@H]2O[C@@H]2C(=O)NCCc2ccc(O)cc2)C(=O)N[C@@H](Cc2ccc(O)cc2)C(N)=O)cc1 [Compound 6] | Cat B
Cc1ccc(C[C@H](NC(=O)[C@H]2OC2C(=O)NCCN2CCCC2)C(=O)N[C@@H](Cc2ccc(O)cc2)C(N)=O)cc1 (stereo partly drawn) [Compound 7] | Cat B
Cc1ccc(C[C@H](NC(=O)[C@H]2O[C@@H]2C(=O)NCc2cccc3ccccc23)C(=O)N[C@@H](Cc2ccc(O)cc2)C(N)=O)cc1 [Compound 8] | Cat B
Cc1ccc(C[C@H](NC(=O)C2OC2C(=O)NCCN2CCCCC2)C(=O)N[C@@H](Cc2ccc(O)cc2)C(N)=O)cc1 (stereo partly drawn) [Compound 9] | Cat B
Cc1ccc(C[C@H](NC(=O)C2OC2C(=O)N[C@H](C)c2ccccc2)C(=O)N[C@@H](Cc2ccc(O)cc2)C(N)=O)cc1 (stereo partly drawn) [Compound 10] | Cat B
Cc1ccc(C[C@H](NC(=O)C2O[C@@H]2C(=O)NN2CCN(C)CC2)C(=O)N[C@@H](Cc2ccc(O)cc2)C(N)=O)cc1 (stereo partly drawn) [Compound 11] | Cat B
Cc1ccc(C[C@H](NC(=O)C2OC2C(=O)NCCCO)C(=O)N[C@@H](Cc2ccc(O)cc2)C(N)=O)cc1 (stereo partly drawn) [Compound 12] | Cat B
Cc1ccc(C[C@H](NC(=O)C2OC2C(=O)NCCCCCCO)C(=O)N[C@@H](Cc2ccc(O)cc2)C(N)=O)cc1 (stereo partly drawn) [Compound 13] | Cat B
CCNC(=O)C1OC1C(=O)N[C@@H](Cc1ccc(C)cc1)C(=O)N[C@@H](Cc1ccc(O)cc1)C(N)=O (stereo partly drawn) [Compound 14] | Cat B
Cc1ccc(C[C@H](NC(=O)C2OC2C(=O)NCC(N)=O)C(=O)N[C@@H](Cc2ccc(O)cc2)C(N)=O)cc1 (stereo partly drawn) [Compound 15] | Cat B
Cc1ccc(C[C@H](NC(=O)C2OC2C(=O)NCC(C)C)C(=O)N[C@@H](Cc2ccc(O)cc2)C(N)=O)cc1 (stereo partly drawn) [Compound 17] | Cat B
CCOC(=O)C1OC1C(=O)N[C@@H](Cc1ccc(C)cc1)C(=O)N[C@@H](Cc1ccc(O)cc1)C(N)=O (stereo partly drawn) [Compound 18] | Cat B
Cc1ccc(C[C@H](NC(=O)[C@H]2OC2C(=O)O)C(=O)N[C@@H](Cc2ccc(O)cc2)C(N)=O)cc1 (stereo partly drawn) [Compound 19] | Cat B
CC(=O)NCCNC(=O)C1O[C@@H]1C(=O)N[C@@H](CC(C)C)C(=O)N[C@@H](Cc1ccc(O)cc1)C(N)=O (stereo partly drawn) [Compound 20] | Cat B
CC(C)C[C@H](NC(=O)[C@H]1OC1C(=O)NCc1ccccc1)C(=O)N[C@@H](Cc1ccc(O)cc1)C(N)=O (stereo partly drawn) [Compound 21] | Cat B

Compound | Target
CC(C)C[C@H](NC(=O)C1OC1C(=O)NCCc1ccccn1)C(=O)N[C@@H](Cc1ccc(O)cc1)C(N)=O (stereo partly drawn) [Compound 22] | Cat B
CC(C)C[C@H](NC(=O)C1OC1C(=O)NCCN1CCOCC1)C(=O)N[C@@H](Cc1ccc(O)cc1)C(N)=O (stereo partly drawn) [Compound 23] | Cat B
CC(C)C[C@H](NC(=O)C1OC1C(=O)NCCc1ccc(-c2ccccc2)cc1)C(=O)N[C@@H](Cc1ccc(O)cc1)C(N)=O (stereo partly drawn) [Compound 24] | Cat B
CC(C)C[C@H](NC(=O)[C@H]1OC1C(=O)NCCN1CCCC1)C(=O)N[C@@H](Cc1ccc(O)cc1)C(N)=O (stereo partly drawn) [Compound 26] | Cat B
CC(C)C[C@H](NC(=O)[C@H]1O[C@@H]1C(=O)NCc1cccc2ccccc12)C(=O)N[C@@H](Cc1ccc(O)cc1)C(N)=O [Compound 27] | Cat B
CC(C)C[C@H](NC(=O)[C@H]1OC1C(=O)NCCN1CCCCC1)C(=O)N[C@@H](Cc1ccc(O)cc1)C(N)=O (stereo partly drawn) [Compound 28] | Cat B
CC(C)C[C@H](NC(=O)[C@H]1OC1C(=O)N[C@H](C)c1ccccc1)C(=O)N[C@@H](Cc1ccc(O)cc1)C(N)=O (stereo partly drawn) [Compound 29] | Cat B
CC(C)C[C@H](NC(=O)C1OC1C(=O)NN1CCN(C)CC1)C(=O)N[C@@H](Cc1ccc(O)cc1)C(N)=O (stereo partly drawn) [Compound 30] | Cat B
CC(C)C[C@H](NC(=O)C1OC1C(=O)NCCCCCCO)C(=O)N[C@@H](Cc1ccc(O)cc1)C(N)=O (stereo partly drawn) [Compound 32] | Cat B
CCNC(=O)C1OC1C(=O)N[C@@H](CC(C)C)C(=O)N[C@@H](Cc1ccc(O)cc1)C(N)=O (stereo partly drawn) [Compound 33] | Cat B
CC(C)C[C@H](NC(=O)C1OC1C(=O)NCC(N)=O)C(=O)N[C@@H](Cc1ccc(O)cc1)C(N)=O (stereo partly drawn) [Compound 34] | Cat B
CC(C)C[C@H](NC(=O)[C@H]1OC1C(=O)NCC(=O)O)C(=O)N[C@@H](Cc1ccc(O)cc1)C(N)=O (stereo partly drawn) [Compound 35] | Cat B
CC(C)CNC(=O)C1OC1C(=O)N[C@@H](CC(C)C)C(=O)N[C@@H](Cc1ccc(O)cc1)C(N)=O (stereo partly drawn) [Compound 36] | Cat B
CC(C)C[C@H](NC(=O)C1OC1C(=O)N[C@@H](C)c1ccccc1)C(=O)N[C@@H](Cc1ccc(O)cc1)C(N)=O (stereo partly drawn) [Compound 37] | Cat B
CC(C)C[C@H](NC(=O)C1OC1C(=O)NCCO)C(=O)N[C@@H](Cc1ccc(O)cc1)C(N)=O (stereo partly drawn) [Compound 38] | Cat B
CC(=O)NCCNC(=O)C1OC1C(=O)N[C@@H](CC(C)C)C(=O)N[C@@H](Cc1ccc(O)cc1)C(N)=O (stereo partly drawn) [Compound 41] | Cat B
CC(C)C[C@H](NC(=O)[C@@H]1O[C@H]1C(=O)NCc1ccccc1)C(=O)N[C@@H](Cc1ccc(O)cc1)C(N)=O [Compound 42] | Cat B
CC(C)C[C@H](NC(=O)C1O[C@H]1C(=O)NCCc1ccccn1)C(=O)N[C@@H](Cc1ccc(O)cc1)C(N)=O (stereo partly drawn) [Compound 43] | Cat B
CC(C)C[C@H](NC(=O)C1OC1C(=O)NCCc1ccc(-c2ccccc2)cc1)C(=O)N[C@@H](Cc1ccc(O)cc1)C(N)=O (stereo partly drawn) [Compound 45] | Cat B
CC(C)C[C@H](NC(=O)[C@@H]1O[C@H]1C(=O)NCc1cccc2ccccc12)C(=O)N[C@@H](Cc1ccc(O)cc1)C(N)=O [Compound 48] | Cat B

Compound | Target
CC(C)C[C@H](NC(=O)C1O[C@H]1C(=O)NCCN1CCCCC1)C(=O)N[C@@H](Cc1ccc(O)cc1)C(N)=O (stereo partly drawn) [Compound 49] | Cat B
CC(C)C[C@H](NC(=O)C1OC1C(=O)N[C@H](C)c1ccccc1)C(=O)N[C@@H](Cc1ccc(O)cc1)C(N)=O (stereo partly drawn) [Compound 50] | Cat B
CC(C)C[C@H](NC(=O)C1O[C@H]1C(=O)NCCCCCCO)C(=O)N[C@@H](Cc1ccc(O)cc1)C(N)=O (stereo partly drawn) [Compound 53] | Cat B
CC(C)CNC(=O)C1OC1C(=O)N[C@@H](CC(C)C)C(=O)N[C@@H](Cc1ccc(O)cc1)C(N)=O (stereo partly drawn) [Compound 57] | Cat B
CC(C)C[C@H](NC(=O)C1OC1C(=O)N[C@@H](C)c1ccccc1)C(=O)N[C@@H](Cc1ccc(O)cc1)C(N)=O (stereo partly drawn) [Compound 58] | Cat B
CCOC(=O)C1OC1C(=O)N[C@@H](CC(C)C)C(=O)N[C@@H](Cc1ccc(O)cc1)C(N)=O (stereo partly drawn) [Compound 59] | Cat B
CC(C)C[C@H](NC(=O)[C@H]1OC1C(=O)NCCc1ccc(O)cc1)C(=O)NCCN1CCCCC1 (stereo partly drawn) [Compound 67] | Cat B
CCOC(=O)C1OC1C(=O)N(CC(=O)N[C@@H](Cc1ccc(O)cc1)C(N)=O)CC(C)C (stereo partly drawn) [Compound 103] | Cat B
CCC[C@H](NC(=O)[C@H]1O[C@@H]1C(=O)OCC)C(=O)NCc1cccc2ccccc12 [Compound 105] | General
CCC[C@H](NC(=O)C1O[C@@H]1C(=O)NCCc1ccc(-c2ccccc2)cc1)C(=O)NCCc1ccccn1 (stereo partly drawn) [Compound 106] | Cat B
CCC[C@H](NC(=O)[C@H]1O[C@@H]1C(=O)NCCc1ccc(O)cc1)C(=O)NCc1cccc2ccccc12 [Compound 111] | Cat Z
CCC[C@H](NC(=O)[C@H]1O[C@@H]1C(=O)O)C(=O)NCc1cccc2ccccc12 [Compound 114] | General
CCC[C@H](NC(=O)[C@@H]1O[C@H]1C(=O)O)C(=O)NCc1cccc2ccccc12 [Compound 115] | Cat Z
CCOC(=O)C1OC1C(=O)N[C@@H](Cc1ccc(C)cc1)C(=O)NCc1cccc2ccccc12 (stereo partly drawn) [Compound 119] | Cat Z
CCC[C@H](NC(=O)C1O[C@@H]1C(=O)NCCc1ccc(O)cc1)C(=O)NCCc1ccccn1 (stereo partly drawn) [Compound 120] | Cat B
Cc1ccc(C[C@H](NC(=O)C2O[C@@H]2C(=O)NCC(=O)O)C(=O)NCc2cccc3ccccc23)cc1 (stereo partly drawn) [Compound 121] | Cat Z
CCOC(=O)[C@H]1O[C@@H]1C(=O)N[C@@H](Cc1ccc(C)cc1)C(=O)NCc1cccc2ccccc12 [Compound 122] | Cat Z
CCC[C@H](NC(=O)C1O[C@@H]1C(=O)OCC)C(=O)NCCc1ccccn1 (stereo partly drawn) [Compound 123] | General
CCC[C@H](NC(=O)[C@@H]1OC1C(=O)OCC)C(=O)NCCc1ccccn1 (stereo partly drawn) [Compound 124] | General
CCOC(=O)C1O[C@H]1C(=O)N[C@@H](Cc1ccc(C)cc1)C(=O)NCCc1ccccn1 (stereo partly drawn) [Compound 126] | General
